Holding throughout (test): NCI-60 cell line screen, 48 h
The test system of assay [1] is EKVX NSCLC.
Assay [2] relates to HCT-116 colon.
For assay [3], the system named is NCI-H23 lung.
The subject of assay [4] is OVCAR-3 ovarian.
For assay [5], the system named is SF-539 CNS.
The subject of assay [6] is SN12C renal.
Assay [7] has as its system SNB-19 CNS.
The subject of assay [8] is TK-10 renal.
For assay [9], the system named is U251 CNS.
Assay [10] concerns UO-31 renal.

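These data come from cells grown in 96-well plates and exposed to compound for 48 hours at five concentrations. GI50 is the concentration that inhibits growth by half. TGI: concentration producing complete growth inhibition.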

Among the data in PubChem BioAssay (NCI) are GI50 and TGI values, retold here.

Turning to `CC(=O)O[C@]1(C(C)=O)CC[C@H]2[C@@H]3C=C(C)C4=CC(=O)CC[C@]4(C)[C@H]3CC[C@@]21C`, the GI50 was 21 µM in assay [1]; 28 µM in [2]; more than 100 µM in [3]; more than 100 µM in assay [4]; more than 61.4 µM in [5]; more than 100 µM in assay [6]. Moreover, the GI50 was more than 82.9 µM in assay [7], more than 77.6 µM in assay [8], more than 60.9 µM in assay [9] and more than 100 µM in assay [10]. The TGI in [1], in assay [2], in assay [3], in assay [4], in assay [5] and in assay [6] was more than 100 µM in each case. In addition, the TGI in [7], in [8], in assay [9] and in assay [10] was more than 100 µM in each case.

Take `O=C(O)/C(=C/C=C/c1ccccc1)c1csc(-c2nc(/C(=C\C=C\c3ccccc3)C(=O)O)cs2)n1`: the TGI in assay [1] is more than 100 µM; in assay [2], 40.8 µM; in assay [4], 57.5 µM; in [5], 51.2 µM; in [6], more than 100 µM; in assay [7] it was 58.1 µM. The TGI in assay [8] is more than 100 µM; in [9], more than 100 µM; in assay [10], 59.6 µM.

For `C1CCN(c2nc(=[N+]3CCCCC3)ss2)CC1`, the TGI in assay [1], in [2], in assay [3], in [5], in [6] and in assay [7] was more than 100 µM throughout. For the same compound, the TGI in [8], in assay [9] and in assay [10] was more than 100 µM throughout.

With `CN(CC(=O)N(Cc1ccc(C2CCCCC2)cc1)c1ccc(C(=O)O)c(O)c1)S(=O)(=O)c1c(F)c(F)c(F)c(F)c1F`, the GI50 in [1] is 15.7 µM; in assay [2], 3.72 µM; in [3], 10.6 µM; in assay [4] it was 9.95 µM; in [5] it was 18.2 µM; in [6] it was 6.74 µM. The GI50 in [7] was 11.3 µM; in [8] it was 16.5 µM; in assay [9] it was 1.81 µM; in assay [10], 12 µM. Besides, the TGI stood at 29.8 µM in assay [1]; 11.9 µM in [2]; 26.9 µM in [3]; 23.3 µM in [4]; 35 µM in assay [5]; 24.4 µM in [6]. Also, the TGI in [7] was 25.1 µM; in [8] it was 30.4 µM; in [9], 3.82 µM; in [10], 25.8 µM.

On to `Clc1ccc(C2SCc3nc4ccccc4n32)cc1Cl` (stereo not drawn), for which the TGI in [1] was determined as 28.1 µM; in [2], 26.2 µM; in assay [3], 27.5 µM; in assay [4], 22.5 µM; in [5], 32.3 µM; in assay [6] it was 26 µM. Moreover, the TGI in assay [7] turned out to be 22.4 µM; in [8] it was 25.9 µM; in assay [9], 30.8 µM.

With `CCC(=O)c1c(NOC2OC(COC(C)=O)C(OC(C)=O)C(OC(C)=O)C2OC(C)=O)nc(OC)n(C)c1=O` (stereo not drawn), the TGI in [1], in assay [2], in assay [3], in assay [5], in assay [6] and in assay [7] was more than 100 µM each time. Besides, the TGI in [8] and in [9] was more than 100 µM each time.

`CN1CCN(c2ccc3nc(-c4ccc5nc(-c6ccc(OCCC(C)(C)C)cc6)[nH]c5c4)[nH]c3c2)CC1`: the GI50 is 4.67 µM in assay [1]; 15.1 µM in assay [3]; 5.22 µM in assay [4]; 11.5 µM in [5]; 4 µM in assay [6]; 2.15 µM in [7]. In addition, the GI50 was 18.2 µM in [8], 2.16 µM in assay [9] and 21.3 µM in [10]. The TGI was determined as 21.4 µM in assay [1]; 33 µM in assay [3]; 16.8 µM in assay [4]; 26.1 µM in assay [5]; 15.4 µM in assay [6]; 4.09 µM in assay [7]. Besides, the results for the TGI in assay [8], in assay [9] and in [10] were 38.8 µM, 3.81 µM and 41.8 µM, respectively.

With `NCCCNCCCCN(CCCN)/[N+]([O-])=N\O`, the TGI in assay [1], in [2], in [3], in assay [4], in [5] and in assay [6] was more than 100 µM each time. Further, the TGI in assay [7] and in assay [10] was more than 100 µM in each case.

Take `C[C@@H](CO)[C@@H]1CCC=C2CC[C@]3(C)[C@H](CC[C@@H]4[C@@]5(C)CCCNC(C)(C)[C@@H]5CC[C@]43C)[C@H]21`: the GI50 in assay [1] was 4.18 µM; in assay [3], 3.94 µM; in assay [4] it was 2.16 µM; in assay [5], 3.48 µM; in [6] it was 3.11 µM; in [7], 2.03 µM. For the same compound, the figures for the GI50 in assay [8], in [9] and in assay [10] were 8.36 µM, 1.84 µM and 2.21 µM, respectively. Also, the TGI came out at 17.3 µM in assay [1]; 14.3 µM in assay [3]; 4.87 µM in assay [4]; 14.6 µM in [5]; 12.5 µM in assay [6]; 4.15 µM in assay [7]. For the same compound, the TGI in assay [8] came to 24.8 µM; in assay [9] it was 3.46 µM; in [10], 6.8 µM.

As for `O=C(Nc1ccccc1)NS(=O)(=O)c1ccc(-n2nc3c(c2-c2ccc(Cl)cc2)Cc2ccccc2-3)cc1`, the GI50 in assay [1] is 15.8 µM; in [2] it was 22.5 µM; in assay [4], 18.3 µM; in assay [5], 18.8 µM; in assay [6] it was 23.2 µM; in assay [7], 61.5 µM. Further, the results for the GI50 in [8], in assay [9] and in assay [10] were 18.3 µM, 22.3 µM and 24.5 µM, respectively. Moreover, the TGI in assay [1] was 78.9 µM; in assay [2], more than 100 µM; in assay [4] it was 54.2 µM; in assay [5], 45.6 µM; in assay [6], 66.6 µM; in assay [7], more than 100 µM. The TGI is 74.4 µM in assay [8], 63.2 µM in [9] and more than 100 µM in assay [10].

Regarding `O=C(CC1(O)C(=O)Nc2c(Cl)cc(Cl)cc21)c1cccc2ccccc12` (stereo not drawn), the TGI is 29.7 µM in assay [1]; 28.5 µM in assay [2]; 32.8 µM in assay [3]; 30 µM in [4]; 32.4 µM in [5]; 34 µM in assay [6]. In addition, the TGI in assay [7] stood at 27.9 µM; in assay [8] it was 27.3 µM; in [9], 29.2 µM.

For the compound `O=[N+]([O-])c1c(Br)sc(Br)c1[N+](=O)[O-]`, the GI50 in assay [1] was 9.3 µM; in assay [3], 11.3 µM; in assay [4], 1.71 µM; in assay [5], 2.49 µM; in assay [6] it was 3.12 µM; in [7], 13.4 µM. Moreover, the values for the GI50 in assay [8], in assay [9] and in assay [10] were 2.31 µM, 2.15 µM and 1.59 µM, respectively. Also, the TGI is 23.8 µM in assay [1]; 28.9 µM in [3]; 3.2 µM in [4]; 6.35 µM in assay [5]; 10.9 µM in assay [6]; 27.9 µM in assay [7]. Further, the TGI in assay [8] amounted to 6.18 µM; in assay [9] it was 5.46 µM; in assay [10], 3.55 µM.

Take `CC1OC(OC2C(O[C@H]3CC[C@@]4(C)C(=CC[C@H]5[C@@H]6C[C@@H]7O[C@]8(CC[C@H](C)CN8)[C@@H](C)[C@@H]7[C@@]6(C)CC[C@@H]54)C3)OC(CO)C(O)C2OC2OC(CO)C(O)C(O)C2O)C(O)C(O)C1O` (stereo partly drawn): the TGI in assay [1] is 32.3 µM; in [2] it was 39.9 µM; in [3], 32.5 µM; in [5], 33.8 µM; in assay [6] it was 38.6 µM; in assay [7], 35.6 µM. The TGI is 31.1 µM in [8], more than 100 µM in assay [9] and 33.2 µM in assay [10].

On to `C1=CC=C2NCCCNC3=CC=CC=CC3=NCCCN=C2C=C1`, for which the TGI in assay [1], in assay [2], in assay [4], in assay [5], in assay [6] and in assay [7] was more than 100 µM throughout. For the same compound, the TGI in assay [8], in assay [9] and in [10] was more than 100 µM throughout.

`O=C(Cc1nc2ccccc2s1)Nc1cccc(C(F)(F)F)c1`: the TGI is 38.9 µM in [1]; 30.2 µM in [3]; 31.8 µM in assay [4]; 33.4 µM in assay [5]; 29.7 µM in [6]; 32.3 µM in [7]. Also, the TGI in assay [8] was 36.1 µM; in [10] it was 27.6 µM.

As for `CC1C[C@@H]2C(=O)NC(=O)[C@@H]2c2c1c1ccccc1n2C` (stereo partly drawn), the TGI in assay [1], in assay [3], in [4], in assay [5], in [6] and in [7] was more than 100 µM in each case. Besides, the TGI in assay [8], in [9] and in assay [10] was more than 100 µM each time.

With `C=C1CCC2C(C)(C)CCC[C@]2(C)[C@H]1CO` (stereo partly drawn), the GI50 in assay [1] is 53.5 µM; in assay [2], 30.4 µM; in assay [3] it was 46.1 µM; in [4], more than 100 µM; in assay [6], 19.8 µM; in [7] it was more than 100 µM. In addition, the figures for the GI50 in assay [8], in [9] and in assay [10] were more than 100 µM, 49 µM and more than 100 µM, respectively. Further, the TGI in assay [1] is more than 100 µM; in [2], more than 100 µM; in [3], more than 100 µM; in assay [4] it was more than 100 µM; in assay [6], 39.5 µM; in [7], more than 100 µM. The TGI in assay [8], in assay [9] and in assay [10] was more than 100 µM each time.

As for `Cc1c(COc2cc(OCc3cccc(C#N)c3)c(CN3C[C@H](O)C[C@@H]3C(=O)O)cc2Cl)cccc1-c1ccc2c(c1)OCCO2`, the GI50 in [1] was 18.1 µM; in assay [2], 1.96 µM; in assay [3], 16.9 µM; in assay [5] it was 15.2 µM; in assay [6], 15.7 µM; in assay [7], 15.6 µM. Further, the GI50 in [8] is 20.2 µM; in assay [9] it was 17.3 µM; in [10], 16.6 µM. The TGI turned out to be 41.2 µM in assay [1]; 4.18 µM in assay [2]; 31 µM in assay [3]; 29.2 µM in [5]; 29.5 µM in assay [6]; 29 µM in [7]. The TGI amounted to 41.5 µM in [8], 47.3 µM in [9] and 30.2 µM in assay [10].

Take `O=C1c2ccccc2C(=O)c2c1ccc(C1C(=O)c3ccccc3C1=O)c2-c1c(C2C(=O)c3ccccc3C2=O)ccc2c1C(=O)c1ccccc1C2=O`: the TGI in assay [1], in [2], in assay [4], in assay [5], in assay [6] and in [7] was more than 100 µM throughout. For the same compound, the TGI in assay [8], in [9] and in assay [10] was more than 100 µM each time.

Consider `O=C(Cn1ccnc1[N+](=O)[O-])c1ccc(F)cc1`, for which the TGI in [1], in assay [3], in assay [4], in [5], in [6] and in assay [7] was more than 100 µM throughout. The TGI in assay [8], in [9] and in assay [10] was more than 100 µM in each case.
